Test results: patent US20130165368A1, “ANTIMICROBIAL COMPOUNDS” (priority 2010, published 2013)
In brackets after ≈: the same amount, converted by molar mass. Where two headings read alike, the source gives them in different places.

Assays:
Format in all cases: cell-based
[1] = tested on: Staphylococcus epidermidis; test: MIC agar dilution, micro-organism 14 (11047); details: Staphylococcus epidermidis 11047, read-out: MIC
How it was run: (§1)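 Agar dilution in Isosensitest/CCEY agar with egg yolk and lysed horse blood; compounds as aqueous emulsions (myristyl and lauryl alcohol with 1-methyl-2-pyrrolidone and Tween 20). 1 µL spots of 1/15-diluted 0.5 McFarland suspensions, 37 °C aerobic, read at 22 and 48 h; MIC (mmol/L) is lowest concentration giving <10 colonies.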

[2] = tested on: Escherichia coli; test: MIC agar dilution, micro-organism 1 (10418); details: Escherichia coli 10418, read-out: MIC
How it was run: as §1

[3] = tested on: MRSA GER 1966/97 (Hanover IIIc); test: MIC agar dilution, MRSA strain 36; details: Staphylococcus aureus
Experimental: (§2) Molar equivalent concentrations were used to allow comparison between compounds of differing molecular mass. Due to weighing difficulties, any compound in solid form was melted in a water bath prior to dilution. To make ten-times strength concentrations, which takes into account agar dilution, 0.0352 mmol of each compound was weighed into plastic universal bottles and 4 mL of sterile distilled water (SDW) was added. To produce a homogenous emulsion the universals were vortexed; once achieved the emulsions were serial diluted by adding 2 mL to 2 mL of SDW.
(§3) For every 100 mL of Isosensitest agar (IST) (CM0471; Oxoid, Basingstoke, England), 3.1 g of the IST powder was added to 100 mL SDW (as per manufacturer's instructions) and sterilised for 15 minutes at 121° C. Once sterilised, the molten agar was cooled to 50° C. in a water-bath. Subsequently 4.8 g of CCEY powder (BC2160; Bioconnections, Wetherby, England), also known as Brazier's medium, was added to 100 mL SDW for every 100 mL of agar needed. This was then sterilised for 15 minutes at 121° C. Once sterilised the molten agar was cooled to 50° C. in a water-bath and 4 mL of egg-yolk emulsion (S2073; TCS Biosciences Ltd, Buckingham, United Kingdom) and 1 mL of lysed defibrinated horse blood (HB035; TCS Biosciences Ltd, Buckingham, United Kingdom) were also added for every 100 mL needed. Horse blood lysis is achieved by dilution to half concentration with SDW; when fully lysed the mixture will turn dark red in colour.
(§4) 18 mL agar was added to each universal and then poured into sterile Petri dishes. This step creates a 1/10 dilution resulting in agar plates of the required strength. Control plates for each set of strains were created by adding 18 mL of agar to 2 mL of SDW.
(§5) Suspensions of each bacterial species were prepared with a density equal to that of a 0.5 McFarland standard using a densitometer. All suspensions were made using sterile distilled water and fresh 18-20 hour cultures. As a 0.5 McFarland standard contains 1.5×10^8 CFU/mL and the multipoint inoculators applies 1 μL spots of liquid, each bacterial suspension was diluted 1/15 (20 μL suspension to 280 μL sterile distilled water).
(§6) Bacterial suspensions were prepared from fresh 18-24 hour cultures as previously described. 1 μL of each strain was inoculated onto all 100 agar plates containing a different chemical concentration and the 2 control plates. This was done using a multipoint inoculator which inoculates 20 strains per plate. All plates were incubated for 22 hours at 37° C. in aerobic conditions.
(§7) Each plate was examined for bacterial growth after 22 and 48 hours, with each being incubated in between examinations. A positive result was recorded as growth of ≧10 colonies. A negative result was recorded as growth of <10 colonies as this is equivalent to 99.9% inhibition. The lowest concentration of chemical that inhibited growth was recorded as the MIC. The results are recorded in Table IV below, where the numbers are quoted in mmol/L.
(§8) Given the positive performance of the ethoxylates of lauryl alcohol in reducing the MIC for a number of the micro-organisms tested, further MIC testing of Laureth-1 [C12E1] through to Laureth-8 [C12E8] was conducted on each of the following: • 10 strains of vancomycin-resistant enterococci (VRE)—listed in Table V below; and • 20 strains of methicillin-resistant Staphylococcus aureus (MRSA)—listed in Table VI.
(§9) The alkanol, alkanol derivatives, agar plates, and inocula were all prepared in the same way as described above.
(§10) The plates were examined in the same manner as described above and the results are recorded in Table VII below, where the numbers are quoted in mmol/L.

[4] = tested on: MRSA BEL 97597; test: MIC agar dilution, MRSA strain 33; details: Staphylococcus aureus
Experimental: as §2, §3, §4, §5, §6, §7, §8, §9, §10

[5] = tested on: Enterococcus casseliflavus (VRE) Clin waste; test: MIC agar dilution, VRE strain 23
Experimental: as §2, §3, §4, §5, §6, §7, §8, §9, §10

[6] = tested on: Enterococcus faecium; test: MIC agar dilution, micro-organism 16 (7171); details: Enterococcus faecium 7171, read-out: MIC
How it was run: as §1

[7] = tested on: Enterococcus faecium (VRE) NCTC 12952; test: MIC agar dilution, VRE strain 30
Experimental: as §2, §3, §4, §5, §6, §7, §8, §9, §10

[8] = tested on: MRSA FRA 95035; test: MIC agar dilution, MRSA strain 37; details: Staphylococcus aureus
Experimental: as §2, §3, §4, §5, §6, §7, §8, §9, §10

[9] = tested on: Providencia rettgeri; test: MIC agar dilution, micro-organism 3 (7475); details: Providencia rettgeri 7475, read-out: MIC
How it was run: as §1

[10] = tested on: MRSA FRA 920; test: MIC agar dilution, MRSA strain 38; details: Staphylococcus aureus
Experimental: as §2, §3, §4, §5, §6, §7, §8, §9, §10

[11] = tested on: MRSA BEL 97598; test: MIC agar dilution, MRSA strain 34; details: Staphylococcus aureus
Experimental: as §2, §3, §4, §5, §6, §7, §8, §9, §10

[12] = tested on: Steptococcus pyogenes; test: MIC agar dilution, micro-organism 11 (8306); details: Steptococcus pyogenes 8306, read-out: MIC
How it was run: as §1

[13] = tested on: Enterococcus faecalis (VRE) PHLS URINE 2000; test: MIC agar dilution, VRE strain 21
Experimental: as §2, §3, §4, §5, §6, §7, §8, §9, §10

Compound	MIC ([1]; 22 hrs) [µM]	MIC ([1]; 48 hrs) [µM]	MIC ([2]; 22 hrs) [µM]	MIC ([2]; 48 hrs) [µM]	MIC ([3]; 22 hrs) [µM]	MIC ([3]; 48 hrs) [µM]	MIC ([4]; 22 hrs) [µM]	MIC ([4]; 48 hrs) [µM]	MIC ([5]; 22 hrs) [µM]	MIC ([5]; 48 hrs) [µM]	MIC ([6]; 22 hrs) [µM]	MIC ([6]; 48 hrs) [µM]	MIC ([7]; 22 hrs) [µM]	MIC ([7]; 48 hrs) [µM]	MIC ([8]; 22 hrs) [µM]	MIC ([8]; 48 hrs) [µM]	MIC ([9]; 22 hrs) [µM]	MIC ([9]; 48 hrs) [µM]	MIC ([10]; 22 hrs) [µM]	MIC ([10]; 48 hrs) [µM]	also measured
CCCCCCCCCCCCOCCOCCOCCO [L3, Triethylene Glycol Monododecyl Ether]	≤ 50	≤ 50	> 880	> 880	55 (≈ 17.5 µg/mL)	55 (≈ 17.5 µg/mL)	55 (≈ 17.5 µg/mL)	55 (≈ 17.5 µg/mL)	220 (≈ 70.1 µg/mL)	220 (≈ 70.1 µg/mL)	110 (≈ 35 µg/mL)	110 (≈ 35 µg/mL)	220 (≈ 70.1 µg/mL)	220 (≈ 70.1 µg/mL)	55 (≈ 17.5 µg/mL)	55 (≈ 17.5 µg/mL)	> 880	> 880	55 (≈ 17.5 µg/mL)	55 (≈ 17.5 µg/mL)	MIC ([11]; 22 hrs): 110 µM (≈ 35 µg/mL); MIC ([11]; 48 hrs): 110 µM (≈ 35 µg/mL); MIC ([12]; 22 h, 22 hrs): ≤ 50 µM; MIC ([12]; 48 h, 48 hrs): ≤ 50 µM; MIC ([13]; 22 hrs): 220 µM (≈ 70.1 µg/mL); MIC ([13]; 48 hrs): 220 µM (≈ 70.1 µg/mL)
CCCCCCCCCCCCOCCOCCOCCOCCO [L4, Tetraethylene Glycol Monododecyl Ether]	110 (≈ 39.9 µg/mL)	110 (≈ 39.9 µg/mL)	> 880	> 880	55 (≈ 19.9 µg/mL)	55 (≈ 19.9 µg/mL)	55 (≈ 19.9 µg/mL)	55 (≈ 19.9 µg/mL)	110 (≈ 39.9 µg/mL)	110 (≈ 39.9 µg/mL)	220 (≈ 79.8 µg/mL)	220 (≈ 79.8 µg/mL)	440 (≈ 160 µg/mL)	440 (≈ 160 µg/mL)	55 (≈ 19.9 µg/mL)	55 (≈ 19.9 µg/mL)	> 880	> 880	55 (≈ 19.9 µg/mL)	55 (≈ 19.9 µg/mL)	MIC ([11]; 22 hrs): 110 µM (≈ 39.9 µg/mL); MIC ([11]; 48 hrs): 110 µM (≈ 39.9 µg/mL); MIC ([12]; 22 h, 22 hrs): ≤ 50 µM; MIC ([12]; 48 h, 48 hrs): ≤ 50 µM; MIC ([13]; 22 hrs): 110 µM (≈ 39.9 µg/mL); MIC ([13]; 48 hrs): 110 µM (≈ 39.9 µg/mL)
